In patent publication US8895504B2, “Amylin derivatives” (priority 2008, dated 2014):
*1 amine or outer side, *2 acyl side, *3 side chain or, on linkers, in order; H or OH if unused. Where a SMILES comes first, the peptide text is derived from it. Bridges are numbered along the chain shown (N, C = ends). The star is where a group is joined. C20 diacid = O=C(O)CCCCCCCCCCCCCCCCCCC(=O)*; C18 diacid = O=C(O)CCCCCCCCCCCCCCCCC(=O)*; PEG8 = NCCOCCOCCOCCOCCOCCOCCOCCOCCC(=O)O; γGlu = O=C(O)[C@H](CCC(=O)[*:2])N[*:1]; Adipoyl = O=C(CCCCC(=O)[*:2])[*:1]

Target: T1, Amylin 3(a) receptor (human calcitonin receptor (CTa) and RAMP-3) (Homo sapiens, UniProt O60896+P30988)
T1 construct: expressed in transfected cells; host or cells: BHK570 cells, stably transfected with a CRE-luciferase reporter
T1 sequence (O60896 24-148): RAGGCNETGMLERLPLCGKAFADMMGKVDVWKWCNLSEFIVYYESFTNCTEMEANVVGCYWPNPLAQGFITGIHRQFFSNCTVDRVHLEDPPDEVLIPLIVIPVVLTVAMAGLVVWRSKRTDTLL
T1 sequence (P30988 25-474): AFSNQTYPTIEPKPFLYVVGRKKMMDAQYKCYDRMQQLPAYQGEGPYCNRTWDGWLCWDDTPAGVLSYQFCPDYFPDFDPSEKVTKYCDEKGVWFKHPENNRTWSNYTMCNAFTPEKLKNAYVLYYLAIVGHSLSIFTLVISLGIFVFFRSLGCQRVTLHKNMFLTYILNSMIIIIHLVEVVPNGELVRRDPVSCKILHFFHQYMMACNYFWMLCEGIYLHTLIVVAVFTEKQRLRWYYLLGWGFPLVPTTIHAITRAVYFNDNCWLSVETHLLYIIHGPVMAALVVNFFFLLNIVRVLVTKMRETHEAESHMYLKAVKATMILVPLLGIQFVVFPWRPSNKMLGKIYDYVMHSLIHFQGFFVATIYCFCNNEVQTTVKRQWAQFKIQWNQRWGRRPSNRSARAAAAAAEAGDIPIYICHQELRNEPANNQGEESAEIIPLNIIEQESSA
Assay: Luciferase assay (III), BHK Amylin 3(a)//CRE-luc cells
Format: cell-based
Settings: BHK cells with Amylin 3(a) receptor and CRE luciferase reporter, 4 hours incubation; read-out: Potency Luciferase
From the text: It has previously been published (Poyner D R et al 2002, Pharmacological Reviews 54(2) 233-246) that activation of Amylin receptors (coexpression of Calcitonin receptor and receptor activity modifying peptides RAMPs) by Amylin leads to an increase in the intracellular concentration of cAMP. Consequently, transcription is activated at promoters containing multiple copies of the cAMP response element (CRE). It is thus possible to measure Amylin activity by use of a CRE luciferase reporter gene introduced into BHK cells also expressing an Amylin receptor.
2. Construction of an Amylin 3(a)/CRE-luc Cell Line
A BHK570 cell line stably transfected with the human calcitonin receptor (CTa) and a CRE-responsive luciferase reportergene. The cell line was further transfected with RAMP-3, using standard methods. This turns the Calcitonin receptor into an Amylin 3(a) receptor. Methotrexate, Neomycin, and Hygromycin are selection markers for luciferase, the Calcitonin receptor, and RAMP-3, respectively.
3. Amylin Luciferase Assay
To perform activity assays, BHK Amylin 3(a)//CRE-luc cells were seeded in white 96 well culture plates at a density of about 20,000 cells/well. The cells were in 100 μl growth medium (DMEM with 10% FBS, 1% Pen/Strep, 1 mM Na-pyruvate, 250 nM Methotrexate, 500 μg/ml Neomycin, and 400 μg/ml Hygromycin). After incubation overnight at 37° C. and 5% CO2, the growth medium was replaced by 50 μl/well assay medium (DMEM (without phenol red), Glumamax™, 10% FBS, and 10 mM Hepes, pH 7,4). Further, 50 μl/well of standard or sample in assay buffer were added. After 4 hours incubation at 37° C. and 5% CO2, the assay medium with standard or sample were removed and replaced by 100 μl/well PBS. Further, 100 μl/well LucLite™ was added. The plates were sealed and incubated at room temperature for 30 minutes. Finally, luminescence was measured on a TopCounter (Packard) in SPC (single photon counting) mode.

| EC50 [nM] | Structure (SMILES) |
| --- | --- |
| 0.08 | CC[C@H](C)[C@H](NC(=O)[C@@H]1CCCN1C(=O)CNC(=O)[C@H](Cc1ccccc1)NC(=O)[C@H](CC(N)=O)NC(=O)[C@H](CC(N)=O)NC(=O)[C@H](CO)NC(=O)[C@H](CO)NC(=O)[C@H](Cc1c[nH]cn1)NC(=O)[C@H](Cc1c[nH]cn1)NC(=O)[C@H](CC(C)C)NC(=O)[C@H](Cc1ccccc1)NC(=O)[C@H](CC(N)=O)NC(=O)[C@H](C)NC(=O)[C@H](CC(C)C)NC(=O)[C@H](CCCNC(=N)N)NC(=O)[C@H](CCC(N)=O)NC(=O)[C@@H](NC(=O)[C@H](C)NC(=O)[C@@H]1CSSC[C@H](NC(=O)[C@H](CCCNC(=N)N)NC(=O)CCOCCOCCOCCOCCOCCOCCOCCOCCNC(=O)CC[C@H](NC(=O)CCCCCCCCCCCCCCCCC(=O)O)C(=O)O)C(=O)N[C@@H](CC(N)=O)C(=O)N[C@@H]([C@@H](C)O)C(=O)N[C@@H](C)C(=O)N[C@@H]([C@@H](C)O)C(=O)N1)[C@@H](C)O)C(=O)N[C@@H](CC(C)C)C(=O)N1CCC[C@H]1C(=O)N1CCC[C@H]1C(=O)N[C@H](C(=O)N[C@@H](CC(N)=O)C(=O)N[C@H](C(=O)NCC(=O)N[C@@H](CO)C(=O)N[C@@H](CC(N)=O)C(=O)N[C@H](C(=O)N[C@@H](Cc1ccc(O)cc1)C(N)=O)[C@@H](C)O)C(C)C)[C@@H](C)O [Example 52, N-alpha-[3-(2-{2-[2-(2-{2-[2-(2-{2-[(S)-4-Carboxy-4-(17-carboxyheptadecanoylamino)butyrylamino]ethoxy}ethoxy)ethoxy]ethoxy}ethoxy)ethoxy]ethoxy}ethoxy)propionylamino][Arg1,His17]-pramlintide] ({C18 diacid-γGlu-PEG8}-RCNTATCATQRLANFLHHSSNNFGPILPPTNVGSNTY-NH2; disulfide 2-7) |
| 0.04 | CC[C@H](C)[C@H](NC(=O)[C@@H]1CCCN1C(=O)CNC(=O)[C@H](Cc1ccccc1)NC(=O)[C@H](CC(N)=O)NC(=O)[C@H](CC(N)=O)NC(=O)[C@H](CO)NC(=O)[C@H](CO)NC(=O)[C@H](Cc1c[nH]cn1)NC(=O)[C@H](Cc1c[nH]cn1)NC(=O)[C@H](CC(C)C)NC(=O)[C@H](Cc1ccccc1)NC(=O)[C@H](CC(N)=O)NC(=O)[C@H](C)NC(=O)[C@H](CC(C)C)NC(=O)[C@H](CCCNC(=N)N)NC(=O)[C@H](CCC(N)=O)NC(=O)[C@@H](NC(=O)[C@H](C)NC(=O)[C@@H]1CSSC[C@H](NC(=O)[C@H](Cc2c[nH]cn2)NC(=O)[C@H](Cc2c[nH]cn2)NC(=O)[C@H](Cc2c[nH]cn2)NC(=O)CC[C@H](NC(=O)CCCCC(=O)O)C(=O)O)C(=O)N[C@@H](CC(N)=O)C(=O)N[C@@H]([C@@H](C)O)C(=O)N[C@@H](C)C(=O)N[C@@H]([C@@H](C)O)C(=O)N1)[C@@H](C)O)C(=O)N[C@@H](CC(C)C)C(=O)N1CCC[C@H]1C(=O)N1CCC[C@H]1C(=O)N[C@H](C(=O)N[C@@H](CC(N)=O)C(=O)N[C@H](C(=O)NCC(=O)N[C@@H](CO)C(=O)N[C@@H](CC(N)=O)C(=O)N[C@H](C(=O)N[C@@H](Cc1ccc(O)cc1)C(N)=O)[C@@H](C)O)C(C)C)[C@@H](C)O [Example 61, N-alpha-[(S)-4-Carboxy-4-(5-carboxypentanoylamino)butyryl]-His-His-[His1,His17]-pramlintide] ({Adipoyl-γGlu}-HHHCNTATCATQRLANFLHHSSNNFGPILPPTNVGSNTY-NH2; disulfide 4-9) |
| 0.07 | CC[C@H](C)[C@H](NC(=O)[C@@H]1CCCN1C(=O)CNC(=O)[C@H](Cc1ccccc1)NC(=O)[C@H](CC(N)=O)NC(=O)[C@H](CC(N)=O)NC(=O)[C@H](CO)NC(=O)[C@H](CO)NC(=O)[C@H](Cc1c[nH]cn1)NC(=O)[C@H](Cc1c[nH]cn1)NC(=O)[C@H](CC(C)C)NC(=O)[C@H](Cc1ccccc1)NC(=O)[C@H](CC(N)=O)NC(=O)[C@H](C)NC(=O)[C@H](CC(C)C)NC(=O)[C@H](CCCNC(=N)N)NC(=O)[C@H](CCC(N)=O)NC(=O)[C@@H](NC(=O)[C@H](C)NC(=O)[C@@H]1CSSC[C@H](NC(=O)[C@H](CCCNC(=N)N)NC(=O)[C@H](CCCCN)NC(=O)[C@H](CCC(=O)O)NC(=O)CCCCCCCCCCCCCCCCCCC(=O)O)C(=O)N[C@@H](CC(N)=O)C(=O)N[C@@H]([C@@H](C)O)C(=O)N[C@@H](C)C(=O)N[C@@H]([C@@H](C)O)C(=O)N1)[C@@H](C)O)C(=O)N[C@@H](CC(C)C)C(=O)N1CCC[C@H]1C(=O)N1CCC[C@H]1C(=O)N[C@H](C(=O)N[C@@H](CC(N)=O)C(=O)N[C@H](C(=O)NCC(=O)N[C@@H](CO)C(=O)N[C@@H](CC(N)=O)C(=O)N[C@H](C(=O)N[C@@H](Cc1ccc(O)cc1)C(N)=O)[C@@H](C)O)C(C)C)[C@@H](C)O [Example 8, N-alpha-[19-carboxynonadecanoyl]-Glu-Lys-[Arg1,His17]-pramlintide] ({C20 diacid}-EKRCNTATCATQRLANFLHHSSNNFGPILPPTNVGSNTY-NH2; disulfide 4-9) |
| 0.06 | CC(C)C[C@H](NC(=O)[C@H](CCCNC(=N)N)NC(=O)[C@H](CCC(N)=O)NC(=O)[C@@H](NC(=O)[C@H](C)NC(=O)[C@@H]1CSSC[C@H](NC(=O)[C@H](CCC(=O)O)NC(=O)[C@H](CCCNC(=N)N)NC(=O)[C@H](CCC(=O)O)NC(=O)CC[C@H](NC(=O)CCCCCCCCCCCCCCCCCCC(=O)O)C(=O)O)C(=O)N[C@@H](CC(N)=O)C(=O)N[C@@H]([C@@H](C)O)C(=O)N[C@@H](C)C(=O)N[C@@H]([C@@H](C)O)C(=O)N1)[C@@H](C)O)C(=O)N[C@@H](C)C(=O)N[C@@H](CC(=O)O)C(=O)N[C@@H](Cc1ccccc1)C(=O)N[C@@H](CC(C)C)C(=O)N[C@@H](Cc1c[nH]cn1)C(=O)N[C@@H](Cc1c[nH]cn1)C(=O)N[C@@H](CO)C(=O)N[C@@H](CO)C(=O)N[C@@H](CCC(N)=O)C(=O)N[C@@H](CC(N)=O)C(=O)N[C@@H](Cc1ccccc1)C(=O)NCC(=O)N[C@@H](C)C(=O)N1CCC[C@H]1C(=O)N[C@@H](CC(C)C)C(=O)N[C@@H](CO)C(=O)N[C@@H](CO)C(=O)N[C@H](C(=O)N[C@@H](CC(N)=O)C(=O)N[C@H](C(=O)NCC(=O)N[C@@H](CO)C(=O)N[C@@H](CC(N)=O)C(=O)N[C@H](C(=O)N[C@@H](Cc1ccc(O)cc1)C(N)=O)[C@@H](C)O)C(C)C)[C@@H](C)O [Example 48, N-alpha-[(S)-4-Carboxy-4-(19-carboxynonadecanoylamino)butyryl]-Glu-Arg-[Glu1,Asp14,His17,Gln21,Ala25,Pro26,Ser28,Ser29]-pramlintide] ({C20 diacid-γGlu}-ERECNTATCATQRLADFLHHSSQNFGAPLSSTNVGSNTY-NH2; disulfide 4-9) |
| 0.2 | CC(C)C[C@H](NC(=O)[C@H](CCCNC(=N)N)NC(=O)[C@H](CCC(N)=O)NC(=O)[C@@H](NC(=O)[C@H](C)NC(=O)[C@@H]1CSSC[C@H](NC(=O)[C@H](CCC(=O)O)NC(=O)[C@H](CCCNC(=N)N)NC(=O)[C@H](CCC(=O)O)NC(=O)CC[C@H](NC(=O)CCCCCCCCCCCCCCCCCCC(=O)O)C(=O)O)C(=O)N[C@@H](CC(N)=O)C(=O)N[C@@H]([C@@H](C)O)C(=O)N[C@@H](C)C(=O)N[C@@H]([C@@H](C)O)C(=O)N1)[C@@H](C)O)C(=O)N[C@@H](C)C(=O)N[C@@H](CC(N)=O)C(=O)N[C@@H](Cc1ccccc1)C(=O)N[C@@H](CC(C)C)C(=O)N[C@@H](CCCNC(=N)N)C(=O)N[C@@H](Cc1c[nH]cn1)C(=O)N[C@@H](CO)C(=O)N[C@@H](CO)C(=O)N[C@@H](CC(N)=O)C(=O)N[C@@H](CC(N)=O)C(=O)N[C@@H](Cc1ccccc1)C(=O)NCC(=O)N[C@@H](C)C(=O)N1CCC[C@H]1C(=O)N[C@@H](CC(C)C)C(=O)N[C@@H](CO)C(=O)N[C@@H](CO)C(=O)N[C@H](C(=O)N[C@@H](CC(N)=O)C(=O)N[C@H](C(=O)NCC(=O)N[C@@H](CO)C(=O)N[C@@H](CC(N)=O)C(=O)N[C@H](C(=O)N[C@@H](Cc1ccc(O)cc1)C(N)=O)[C@@H](C)O)C(C)C)[C@@H](C)O [Example 46, N-alpha-[(S)-4-Carboxy-4-(19-carboxynonadecanoylamino)butyryl]-Glu-Arg-[Glu1,Arg17,Ala25,Pro26,Ser28,Ser29]-pramlintide] ({C20 diacid-γGlu}-ERECNTATCATQRLANFLRHSSNNFGAPLSSTNVGSNTY-NH2; disulfide 4-9) |
